Data set [1] can be described thus: Maximum tolerable dose in CDF1 mice. The data set is classed as in vivo. The conditions noted are these: AC-7700 s.c. 3 times every 3 days, CDF1 mice (female).
The subject of data set [2] is Malignant fibrous histiocytoma MT-9. The experiment in a line: Anti-tumor effect, MT-9/F344 system (tumor volume, I.R.). Format: in vivo, rat (F344). The settings on record: for I.R.(%): 3 times every 3 days. On the procedure:
• Rat tumor cell line (transplant rat strain); • Malignant fibrous histiocytoma MT-9 (F344, male)
MT-9 was obtained as in-vitro cultured cells, which were cultured in RPMI1640 medium containing 10% FBS. 10^7 or more of the MT-9 cells were subcutaneously transplanted into the back of rats. After tumor formation, tumor slices (about 100 mg) were inoculated subcutaneously into rats using cannula for serial passage.
The MT-9/F344 system: Tumors serially passed by the subcutaneous transplantation were extirpated. After binding tissues and necrosis portions in the tumors had been removed, tumor tissues were minced with scissors and made pasty. About 50-100 mg of the tumor tissues were subcutaneously transplanted into the backs of F344 rats (day 0).
After the tumors were multiplied to a measurable quantity (about 1-2 weeks later), the tumor size (tumor volume) and body weight were measured and divided into tumor size-and body weight-matched groups.
The tumor sizes (tumor volumes) and body weights were measured every day from the next day to about the third day following completion of administration. Incidentally, the tumor volume was calculated according to the following formula:
Tumor volume (mm^3)=[…].
T/C(%)=[(tumor volume for the medicine administered group)÷(tumor volume for the control group)]×100
The influence of Dexamethasone on the pharmaceutical effect of AC-7700 was investigated using F344 rats, subcutaneously transplanted MT-9. AC-7700 was administered at a dosage of 10 mg/kg, and 1 mg/kg of Dexamethasone was administered on the day before the AC-7700 administration. Both the medical agents were 3 times administered every 3 days.

Counter-ions that a name gives are not always drawn. Marks after values point to notes of the source that are not given here.

For `COc1ccc(/C=C\c2cc(OC)c(OC)c(OC)c2)cc1NC(=O)[C@@H](N)CO` [AC-7700, (Z)—N-[2-methoxy-5-[2-(3,4,5-trimethoxyphenyl)vinyl]phenyl]-L-serinamide hydrochloride], the “maximum tolerable dose of AC-7700” value in data set [1] (with Dexamethasone 5 mg/kg/day i.v. on the day before and the day of AC-7700) is listed as “more than 90 mg/kg/day”; in data set [1] (without Dexamethasone), 43.6 mg/kg/day. Moreover, the tumor growth result in data set [2] (AC-7700 10 mg/kg as single agent, F344 rats, s.c. MT-9) is given as “significantly inhibited tumor growth”; in data set [2] (AC-7700 10 mg/kg in combination with Dexamethasone 1 mg/kg, no significant difference from AC-7700 alone (Scheffe's F test)), “inhibited tumor growth in the same manner”. Besides, the “I.R.(%)” value is recorded as 84** % in data set [2] (AC-7700 10 mg/kg/day alone (DEX 0), F344 rats, s.c. MT-9) and 72** % in data set [2] (AC-7700 10 mg/kg/day combined with DEX 1 mg/kg/day given the day before, F344 rats, s.c. MT-9).

These data come from patent publication US20100216755A1, “ANTI-TUMOR AGENT” (AJINOMOTO CO. INC, priority 2001, published 2010).
